Assay results reported in US9096835B2, “DNA polymerase” (Medical Research Council, priority 2003, dated 2015).
“Also recorded” adds a separate entry of the source.

B1: 3A10: third round clone, abasic site bypass; SEQ ID NO: 86 (protein)
chain: MAMLPLFEPKGRVLLVDGHHLAYRTFFALKGLTTSRGEPVQVVYGFAKSLLKALKEDGYKAVFVVFDAKAPSFRHKAYEAYRAGRAPTPQDFPRQLALIKELVDLLGFTRLEVPGYEADDVLATLAKKAEKEGYEVRILTADRGLYQLVSDRVAVLHPEGHLITPEWLWEKYGLRPEQWVDFRALVGDPSDNLPGVKGIGEKTALKLLKEWGSLENLLKNLDRVKPENVREKIKAHLEDLRLSLELSRVRTDLPLEVDLAQGREPDREGLRAFLERLEFGSLLHEFGLLESPKALEEAPWPPPEGAFVGFVLSRKEPMWADLLALAAARGGRVHQAPEPYKALRDLKEARGLLAKDLSVLALREGLGLPPGDDPMLLAYLLDPSNTTPEGVARRYGGEWTEEAGERAALSERLFANLWGRLEGEERLLWLYREVERPLSAVLAHMETTGVRLDVAYLRALSLEVAEEIARLEAEVFRLAGRPFNLNSRDQLERVLFDELGLPAIGKTEKTGKRSTSAAVLEALREAHPIVEKILQYRELTKLKSTYIDPLPDLIHPRTGRLHTRFNQTATATGRLSSSDPNLQNIPVRTPLGQRIRRAFIAEEGWLLVVLDYSQMELRVLAHLSGDENLIRVFQEGKDIHTQTASWMFGVPPEAVDPLMRRAAKTVNFGVLYGMSAHRLSQELSIPYEEAVAFIERYFQSFPKVRAWIEKTLEEGRRRGYVETLFGRRRYVPDLNARMKSVRGAAERMAFNMPVQGTAADLMKLAMVKLFPRLREMGARMLLQVHDELLLEAPQARAEEVAALAKEAMEKAYPLAVPLEVEVGIGEDWLSAKE
modifications: Mutant Taq polymerase
B2: 3D1: third round clone, four mismatch extension; SEQ ID NO: 98 (protein)
chain: MAMLPLFEPKGRVLLVDGHHLAYRTFFALKGPTTSRGEPVQVVYGFAKSLLKALKEDGYKAVFVVFDAKAPSFRHKAYEAYRAGRAPTPEDFPRQLALIKELVDLLGFTRLEVPGYEADDVLATLAKKAEKEGYEVRILTADRGLYQLVSDRVAVLHPEGHLITPEWLWEKYGLRPEQWVDFRALVGDPSDNLPGVKGIGEKTALKLLKEWGSLENLLKNLDRVKPENVREKIKAHLEDLRLSLELSRVRTDLPLEVDLAQRREPDREGLRAFLERLEFGSLFHEFGLLESPKALEEAPWPPPEGAFVGFVLSRKEPMWADLLALAAARGGRVHRAPEPYKALRDLKEARGLLAKDLSVLALREGLGLPPGDDPMLLAYLLDPSNTTPEGVARRYGGEWTEEAGERAALSERLFANLWGRLEGEERLLWLYREVERPLSAVLAHMEATGVRLDVAYLRALSLEVAEEIARLEAEVFRLAGHPFNLNSRDQLEMVLFDELRLPALGKTQKTGKRSTSAAVLEALREAHPIVEKILQYRELTKLKSTYIDPLSDLIHPRTGRLHTRFNQTATATGRLSSSDPNLQNIPVRTPLGQRIRRAFIAEEGWLLVVLDYSQIELRVLAHLSGDENLIRVFQEGRDIHTETASWMFGVPREAVDPLMRRAAKTINFGVLYGMSAHRLSQELAIPYEEAQAFIERYFQSFPKVRAWIEKTLEEGRRRGYVETLFGRRRYVPDLEARVKSVREAAERMAFNMPVQGTAADLMKLAMVKLFPRLGETGARMLLQVHDELVLEAPKERAEAVARLAKEAMEGVYPLAVPLEVEVGIGEDWLSAKG
modifications: Mutant Taq polymerase

Assays:
PCR with Biotin-16-dUTP = assay type: biochemical; conditions: 50 cycle PCR, complete replacement
Experimental: A PCR assay was used to screen and rank clones. Briefly, clones were normalized for activity in PCR with matched primers 3, 4 and activity with mismatched primers 1 and 2 (1 μM each) determined at minimal cycle number (15-25 cycles). Extension capability for different mismatches was determined by the same assay using mismatch primers 2 (C•C mismatch), 5 (A•A mismatch), 6 (G•G mismatch), 7 (G•A mismatch) with matched primer 3 or primer 1 (A•G mismatch) with matched primer 4. Incorporation of unnatural substrates in 50 cycle PCR was carried out using standard conditions and 50 μM […] dNTPs (Promega) or 50 μM FITC-12-dATP (Perkin-Elmer), Rhodamine-5-dUTP (Perkin-Elmer) or Biotin-16-dUTP (Roche) with equivalent amounts of the other 3 dNTPs (all 50 μM). Long PCR was carried out using a two-step cycling protocol as described (22) 94° C. for 2 minutes, followed by 20 cycles of (94° C. 15 sec, 68° C. 30 min) using 5 ng of phage λ DNA (New England Biolabs) template and either primers 9, 10, 11 with primer 12 or primer 13 with primers 10, 14.

undamaged template = experiment: Translesion replication assay, control; assay type: biochemical; conditions: gel-extension assay, 60° C.
Experimental: (§1) Template primers 22 (undamaged) or 23 (containing a synthetic abasic site) were synthesized by Lofstrand Laboratories (Gaithersburg, Md.). Template primer 24 (containing a single cis-syn thymine dimer), was synthesized as described (34). Primer 25 was ^32P-labeled and annealed to one of the three templates 22, 23, 24 (at a primer template ratio of molar 1:1.5) and extended in 40 mM Tris.HCl at pH 8.0, 5 mM MgCl2, 100 μM of each dNTP, 10 mM DTT, 250 μg/ml BSA, 2.5% glycerol, 10 nM primer-template DNA and 0.1 Unit of polymerase at 60° C. for various times.

[1] = target: matched and mismatched primer-template duplex; experiment: Template affinity equilibrium binding assay; conditions: not shown
Experimental: An equilibrium binding assay (12) was used to determine relative affinity of polymerases for the mismatched primer-templates used in the kinetics assays. Polymerases were preincubated at 60° C. in 1× Taq buffer with 50 nM ^32P-labeled matched primer-template and 50 nM unlabeled mismatched competitor primer-templates. Reactions were initiated by simultaneous addition of dCTP (200 μM) and trap DNA (XbaI/SalI-restricted sheared salmon sperm DNA, 4.5 mg/ml).

[2] = tested on: primer-template DNA substrates; experiment: Processivity primer extension assay with and without trap DNA; assay type: biochemical
Experimental: Processivity was measured using a primer extension assay the presence and absence of trap DNA. Termination probabilities were calculated according to the method of Kokoska et al.
Oligonucleotide primer 32 (5′-GCGGTGTAGAGACGAGTGCGGAG-3′) (SEQ ID NO: 117) was ^32P-labelled and annealed to the template 33 (5′-CTCTCACAAGCAGCCAGGCAAGCTCCGCACTCGTCTCTACACCGCTCCGC-3′ (SEQ ID NO: 118)) (at a primer/template ratio of molar 1/1.5). wtTaq (0.0025 nM; 0.025 nM; 0.25 nM), M1(0.05 nM; 0.5 nM; 5 nM), and M4 (0.05 nM; 0.5 nM; 5 nM) were preincubated with the primer-template DNA substrates (10 nM) in 10 mM Tris-HCl at pH 9.0, 5 mM MgCl2, 50 mM KCl, 0.1% Triton X 100 at 25° C. for 15 min. Reactions were initiated by addition of 100 μM dNTPs with or without trap DNA (1000-fold excess of unlabeled primer-templates). Reactions were performed at 60° C. for 2 min. […] Thus, in the presence of trap DNA, all DNA synthesis resulted from a single DNA binding event. Gel band intensities were calculated using a Phosphoimager and ImageQuant (both Molecular Dynamics) software. Percentage of polymerase molecules, which extended primers to the end of the template was calculated using the formula: In×100%/(I1+I2+ . . . +In), where In is the intensity of the band at position 22 or 23; I1, I2 . . . is the intensity of the band at position 1, 2 . . . . Termination probabilities (τ) were calculated according to the method of Kokoska et al^1, whereby t at a particular template position was calculated as the intensity of the band at this position divided by the sum of the intensity of this band and the band intensities of all longer products.

[3] = tested on: template containing an abasic site; experiment: Translesion replication assay (primer extension), abasic site; assay type: biochemical; conditions: gel-extension assay, 60° C.
Experimental: as §1
Primer extension assays were essentially as described in (Ghadessy et al., 2004). Briefly, undamaged oligonucleotides and a 51mer containing a synthetic abasic site were synthesized by Lofstrand Laboratories (Gaithersburg, Md.) using standard techniques and were gel purified prior to use. A 20mer primer (LES—20 P) with the sequence 5′-[…]-3′ (SEQ ID NO: 99) was 5′-labeled with [^32P]ATP (5000 Ci/mmole; 1 Ci=37 GBq) (Pharmacia) using T4 polynucleotide kinase (Invitrogen, Carlsbad Calif.). Radiolabeled primer-template DNAs were prepared by annealing the 5′[^32P] labeled 20mer primer to one of the two following 51mer templates (at a primer template ratio of molar 1:1.5). 1) undamaged DNA (UNDT51T); 5′-AGCTACCATGCCTGCACGAATTCGGCATCCGTCGCGACCACGGTCGCAGCG-3′ (SEQ ID NO: 100); 2) an oligo (LABA51T) containing a synthetic abasic site (indicated as an X in bold font); 5′-AGCTACCATGCCTGCACGACA XCG GCATCCGTCGCGACCACGGTCGCAGCG-3′ (SEQ ID NO: 101). Standard replication reactions of 10 contained 40 mM Tris.HCl at pH 8.0, 5 mM MgCl2, 100 μM of each ultrapure dNTP (Amersham Pharmacia Biotech, NJ), 10 mM DTT, 250 μg/ml BSA, 2.5% glycerol, 10 nM 5′[32P] primer-template DNA and 0.1 Unit of polymerase. After incubation at 60° C. for various times reactions were terminated by the addition of 10 μl of 95% formamide/10 mM EDTA and the samples heated to 100° C. for 5 min. Reaction mixtures (5 μl) were subjected to 20% polyacrylamide/7 M Urea gel electrophoresis and replication products visualized by PhosphorImager analysis.

Row | Molecule | PCR amplification with Biotin-16-dUTP (PCR with Biotin-16-dUTP) | primer extension on undamaged template (undamaged template) | dissociation constants for matched and mismatched primer-template duplex [1] | bound polymerase that extended primers to the end of the template ([2]; in the presence of trap DNA (single DNA binding event)) [%] | termination probability ([2]; positions 6 and 7) [%] | abasic site bypass in primer extension [3] | abasic site bypass in primer extension ([3]; listed as A10)
1 | wtTaq: Thermus aquaticus (Taq) wild type DNA polymerase [reference compound] | unable to generate any amplification products | efficiently and rapidly extended primers to the end of the template | indistinguishable | 13 | 5 | further extension is largely abolished; also recorded: further extension was negligible | –
2 | B1 | – | – | – | – | – | – | clearly better at both abasic site and CPD extension and bypass than both wild type and M1; also recorded: clearly display better abasic site bypass than either wtTaq or M1
3 | B2 | – | – | – | – | – | clearly display better abasic site bypass than either wtTaq or M1 | –
